The values that follow come from patent US11951108B2, “Combination therapy for treating cancer” (Epizyme, Inc., priority 2016, dated 2024).

One series concerns ES-2. The series can be described thus: In vitro combination study, ovarian cancer cell line ES-2. Particulars: 4+3 model.
The test system of a further series is HCC1187. The series can be described thus: In vitro combination study, breast cancer cell line HCC1187. Particulars: ER/PR −/−, HER2 −, 7 day pre-treatment + 6 day co-treatment.
The next series deals with COV644*. The experiment in a line: In vitro combination study, ovarian cancer cell line COV644. Particulars: COV644*; 7+3 model.

Turning to `CC(=O)O[C@H]1C(=O)[C@@]2(C)[C@H]([C@H](OC(=O)c3ccccc3)[C@]3(O)C[C@H](OC(=O)[C@H](O)[C@@H](NC(=O)c4ccccc4)c4ccccc4)C(C)=C1C3(C)C)[C@]1(OC(C)=O)CO[C@@H]1C[C@@H]2O` [Paclitaxel], the “Synergy or antagonism of second agent with tazemetostat (IC50 shift of second agent)” value in the series on DU4475 was “B (key: B: Synergy > 4× IC50 shift; Synergy > 2× IC50 shift; No Effect; Antagonism; X: Not Tested)”; with JH)S-4, “C (key: B: Synergy > 4× IC50 shift; Synergy > 2× IC50 shift; No Effect; Antagonism; X: Not Tested)”; in the series with RMUGS*, “C (key: B: Synergy > 4× IC50 shift; Synergy > 2× IC50 shift; No Effect; Antagonism; X: Not Tested)”; in the series with OAW42, “B (key: B: Synergy > 4× IC50 shift; Synergy > 2× IC50 shift; No Effect; Antagonism; X: Not Tested)”; in the series on SKOV3 it was “C (key: B: Synergy > 4× IC50 shift; Synergy > 2× IC50 shift; No Effect; Antagonism; X: Not Tested)”; in the series on A2780, “C (key: B: Synergy > 4× IC50 shift; Synergy > 2× IC50 shift; No Effect; Antagonism; X: Not Tested)”. For the same compound, the “Synergy or antagonism of second agent with tazemetostat (IC50 shift of second agent)” value with ES-2, with HCC1187 and in the series on COV644* was “C (Synergy > 2× IC50 shift)” in each case.
